# Test results from PMC3965533, “Inhibition of Cathepsin B by E-64 Induces Oxidative Stress and Apoptosis in Filarial Parasite” (PLoS ONE, 2014).
# Test system: cathepsin B (cathepsin B like cysteine protease)
smiles,measurement,value
"CC(C)C[C@H](NC(=O)[C@H]1O[C@@H]1C(=O)O)C(=O)NCCCCNC(=N)N [E-64, L-trans-Epoxysuccinyl-leucylamido (4-guanidino)butane]",IC50,6 µM
